Source: article PMC12490239, “Combining BET inhibition with SMAC mimetics restricts tumor growth and triggers immune surveillance in preclinical cancer models” (Cell Reports Medicine, 2025)

Assays:
[1] = system: HCC1438; assay: cells; design: CellTiter-Glo 2.0 luminescence proliferation/viability assay, single agents, human tumour cell line panel; settings: 96 h; single agent; read-out: IC50 SMACm
Method in brief: (§1)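 Human tumour cell lines were seeded into assay plates and held at 37°C with 5% CO2 for twenty-four hours, then exposed in triplicate to rising concentrations of the SMAC mimetic, from 4.5 nM to 10 μM, with DMSO as control. After 96 h, viability was read as CellTiter-Glo2.0 luminescence to derive single-agent IC50 values.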

[2] = system: HT-29; assay: cells; design: CellTiter-Glo 2.0 luminescence proliferation/viability assay, single agents, human tumour cell line panel; settings: Homo sapiens, HT-29, 96 h; single agent; read-out: IC50 SMACm
Method in brief: as §1

Question: `CN[C@@H](C)C(=O)Nc1ccc(-c2c(-c3cccnc3OC)nc3cc(C)ccn23)c(C#Cc2ccc3c(C)nccc3c2)n1` [SMACm, BI 891065] was tested. Which IC50 [1] did it give?
Answer: 2.29 µM

Question: What about the IC50 [2] of the same compound?
Answer: 4.24 µM
